Data published in article PMC6881072, “The repositioning of epigenetic probes/inhibitors identifies new anti-schistosomal lead compounds and chemotherapeutic targets” (PLoS Neglected Tropical Diseases, 2019).
“Also recorded” adds a separate entry of the source. Read-outs that look alike come from different tables or passages of the source.

Experiments:
miracidia = test system: miracidia; parameters: method as in Roquis et al., 2018; conditions: ref Roquis et al., 2018; cited from earlier work
S. mansoni schistosomula = test: In vitro schistosomula screening (Roboworm platform), phenotype and motility; type: cell-based, Schistosoma mansoni; conditions: for hit / activity against schistosomula, single-point screen: hit cut-offs phenotype -0.15, motility -0.35; for SELECTIVITY INDEX Schistosomula Phenotype: CC50 HepG2 / schistosomula phenotype EC50; for EC50: Schistosoma mansoni; for SELECTIVITY INDEX Schistosomula Motility: CC50 HepG2 / schistosomula motility EC50
Experimental: Briefly, 384-well tissue culture plates (Perkin Elmer, cat 6007460), containing 20 μl of Basch medium, were wet-stamped using a Biomek NX^P liquid handling platform (Beckman Coulter, UK) with negative (0.625% dimethyl sulfoxide, DMSO) and positive controls (AUR and PZQ at 10 μM final concentration in 0.625% DMSO) as well as 37 SGC compounds (at 10 μM final concentration in 0.625% DMSO). […] To each pre-loaded well (single concentration or titration screens), a total of 100–120 mechanically transformed schistosomula (in 60 μl) were deposited via a WellMate (Thermo Scientific, UK). Schistosomula/compound co-cultures (80 μl in total) were then incubated at 37°C for 72 h in a humidified atmosphere containing 5% CO2. At 72 h, tissue culture plates (containing schistosomula/compound co-cultures) were imaged under the same conditions (37°C in a humidified atmosphere containing 5% CO2) using an ImageXpressXL high content imager (Molecular Devices, UK) with subsequent images processed for phenotype and motility as previously reported and successfully implemented by us at Aberystwyth University. Single point schistosomula screens (10 μM) were repeated two or three times whereas dose response titrations were performed once. Zˊ values obtained from all schistosomula screens ranged from 0.27–0.48 (mean = 0.40) for phenotype and 0.41–0.56 (mean = 0.48) for motility.

H3K36me2 = H3K36me2 detection in adult worm histone extracts; type: cell-based, Schistosoma mansoni; conditions: adult schistosome pairs, 72 h, vs DMSO
Experimental: LLY-507 (6.25 μM), BAY-598 (25 μM) or siSmp_000700 treated male and female worms (alongside DMSO or siLuc controls; 21 individuals per condition) were homogenized with a TissueLyser (Qiagen) and total histones extracted using the EpiQuik^TM Total Histone Extraction Kit (Epigentek). Levels of H3K36me2 in adult histone extracts were measured using the EpiQuik^TM Global Di-Methyl Histone H3-K36 Quantification Kit (Fluorimetric, Epigentek). Technical duplicates of three biological replicates of each treatment were analysed according to the manufacturer’s instructions. Fluorescent readings (530EX/590EM nm) were obtained using a POLARstar Omega (BMG Labtech, UK) microtiter plate reader. Fluorescent values of the samples were corrected by subtracting the fluorescent readings of the blank (buffer only, provided in the kit). The mean of the adjusted control values (DMSO for LLY-507/BAY-598 treated worms and siLuc for siSmp_000700 treated worms) was set at 100% H3K36me2 and the standard deviation (SD) was calculated from the normalised values.

[1] = HepG2 cell cytotoxicity, MTT assay; type: cell-based, Human; conditions: human, HepG2 cells, read-out: CC50 (HepG2) (95% Confidence Intervals)
Experimental: (§1) Human Hepatocyte Carcinoma (HepG2) cells (Sigma Aldrich, UK) were utilized to assess SGC epigenetic probe cell cytotoxicity in the application of the MTT (3-(4,5-dimethylthiazol-2-yl)-2,5-diphenyltetrazolium bromide) assay. Briefly, cells were passaged at 70–80% confluence and seeded (20,000 cells/ 50 μL per well) in a 96-well, black-sided, clear-bottomed falcon plate (Fisher Scientific, UK) with the final plate column (8 wells) being treated as a blank (media only). Following a 24 h incubation (5% CO2, 37°C, humidified), HepG2 cells were then treated with 50 μL of pre-warmed media (37°C) containing SGC EPs/EIs at 200 μM to 0.02 μM (final concentration 100 μM, 10 μM, 1 μM, 0.1 μM and 0.01 μM). Three positive (1% Triton X-100) and negative (1% DMSO) control wells per plate were additionally included.
(§2) After addition of compounds, each plate was then incubated for a further 20 h before application of MTT for assessment of overt compound cytotoxicity using the MTT assay. The MTT assay was read using the POLARstar Omega (BMG LabTech, UK) plate reader at an absorbance of 570 nm. CC50s were calculated in GraphPad Prism.

[2] = test system: adult male and female schistosome pairs; test: In vitro adult schistosome screening (WHO/TDR motility, egg counts); type: cell-based, Schistosoma mansoni; conditions: for SELECTIVITY INDEX Adult Females: CC50 HepG2 / adult female EC50; for SELECTIVITY INDEX Adult Males: CC50 HepG2 / adult male EC50; for EC50: Schistosoma mansoni
Experimental: In vitro screening was replicated three times on different dates to account for any biological variation. Briefly three adult worm pairs/well (48-well tissue culture plate format) were placed into DMEM (Gibco, Paisley, UK) supplemented with 10% (v/v) FCS (Gibco, Paisley, UK), 1% (v/v) L-glutamine (Gibco, Paisley, UK) and an antibiotic mixture (150 Units/ml penicillin and 150 μg/ml streptomycin; Gibco, UK). DMSO (0.5% negative control), AUR (10 μM concentration in 0.5% DMSO; positive control) and two-fold titrations of SGC compounds (50 μM– 6.25 μM or 50 μM– 0.05 μM; in 0.5% DMSO max) were added, and together, these adult worm/compound co-cultures were incubated at 37°C for 72 h in a humidified atmosphere containing 5% CO2. Following compound incubation, WHO/TDR readouts of adult worm motility, abundance of H3K36me2 (LLY-507 and BAY-598 treated worms only) in histone extracts and egg counts/well were recorded at 72 h.

[3] = test system: in vitro laid eggs (IVLEs) of adult worm pairs; test: Vitellocyte and egg volume quantification of in vitro laid eggs (LSCM); type: cell-based, Schistosoma mansoni; conditions: 6.25 μM, 72 h, n = 10 eggs
Source text: Fluorescent microscopic images (10 eggs per treatment) were captured on a Leica TCS SP8 super resolution laser confocal microscope fitted with a 63 X (water immersion) objective using the Leica Application Suite X. Green (egg autofluorescence) fluorescence was visualised with an argon or diode-pumped, solid state (DPSS) laser at 488 nm. DAPI was visualised using a 405 nm blue diode laser. The number of vitellocytes (DAPI^+ cells) and overall volume (mapped by the green autofluorescence) for individual eggs were calculated using IMARIS 7.3 software (Bitplane).

[4] = not told; cited from earlier work
HepG2 cells = test: HepG2 cell cytotoxicity, MTT assay; type: cell-based, Human; conditions: 20 h, read-out: CC50 (HepG2) (95% Confidence Intervals)
Experimental: as §1, §2

[5] = 72 h, two-fold titration 10 μM–0.625 μM, single replicate, approximate, read-out: SCHISTOSOMULA EC50 Phenotype
[6] = 72 h, motility, adult females, read-out: ADULT EC50 (95% Confidence Intervals) Females
[7] = 72 h, motility, adult males, read-out: ADULT EC50 (95% Confidence Intervals) Males

Compound	miracidia to sporocyst transformation (miracidia)	hit / activity against schistosomula, single-point screen (S. mansoni schistosomula; 10 μM, 72 h)	SELECTIVITY INDEX Schistosomula Phenotype (S. mansoni schistosomula)	EC50 (S. mansoni schistosomula; [5]) [µM]	CC50 at 20 h [1] [µM]	SELECTIVITY INDEX Adult Females [2]	SELECTIVITY INDEX Adult Males [2]	EC50 [2, 6] [µM]	EC50 [2, 7] [µM]	SELECTIVITY INDEX Schistosomula Motility (S. mansoni schistosomula)	further results
COc1cc2c(cc1OCCCN1CCCC1)N=C(N)C21CCC1 [A-366, 5'-Methoxy-6'-[3-(1-pyrrolidinyl)propoxy]spiro[cyclobutane-1,3'-indol]-2'-amine]	completely block										
CCN(C(=O)CO)[C@H]1CN(C(=NC#N)Nc2cccc(OC(F)F)c2)N=C1c1ccc(Cl)c(Cl)c1 [BAY-598, (S)-N-[1-{N′-Cyano-N-[3-(difluoromethoxy)phenyl]carbamimidoyl}-3-(3,4-dichlorophenyl)-4,5-dihydro-1H-pyrazol-4-yl]-N-ethyl-2-hydroxyacetamide]		are hits against schistosomula; also recorded: both active against schistosomula	10.40	4.81	> 50	3.02	2.24	16.5	22.4		reduction in H3K36me2 (H3K36me2; 25 μM): 23%
CCCc1cc(C)[nH]c(=O)c1CNC(=O)c1cc(-c2ccnc(N3CCN(C)CC3)c2)cc2c1cnn2C(C)C [GSK343, N-[(1,2-Dihydro-6-methyl-2-oxo-4-propyl-3-pyridinyl)methyl]-1-(1-methylethyl)-6-[2-(4-methyl-1-piperazinyl)-4-pyridinyl]-1H-indazole-4-carboxamide, N-[(6-Methyl-2-oxo-4-propyl-1,2-dihydropyridin-3-yl)methyl]-6-[2-(4-methylpiperazin-1-yl)pyridin-4-yl]-1-(propan-2-yl)-1H-indazole-4-carboxamide]	completely block	identified as a hit	9.24	3.17	29.2	1.16	1.17	25.3	25		
O=C(O)CCNc1cc(N2CCc3ccccc3CC2)nc(-c2ccccn2)n1 [GSK-J1]		None of these chemotype controls demonstrated anti-schistosomula activity									number of vitellocytes per egg (packaging into IVLEs) [3]: did not; overall egg volume [3]: no difference; adult worm motility and IVLE production ([2]; 3.13 μM and 6.25 μM, 72 h, vs DMSO): did not substantially alter these phenotypes; cell permeability [4]: cell impermeable
Cc1cn(CCN2CCN(c3ccccc3-c3cc(C#N)cc(C(=O)NCCCN4CCCC4)c3)CC2)c2ccccc12 [LLY-507, 5-(2-(4-(2-(9-methyl-7-aza-bicyclo[4.3.0]nona-1(6),2,4,8-tetraen-7-yl)-ethyl)-piperazin-1-yl)-phenyl)-3-((3-(pyrrolidin-1-yl)-propylamino)-formyl)-benzonitrile]		are hits against schistosomula; also recorded: both active against schistosomula	8.24	2.88	23.8	3.13	2.55	7.59	9.32	8.47	schistosomula phenotype by microscopic assessment (S. mansoni schistosomula; 10 μM, 72 h): phenotypes comparable to auranofin; EC50 (S. mansoni schistosomula; 72 h, two-fold titration 10 μM–0.625 μM, single replicate, approximate, read-out: SCHISTOSOMULA EC50 Motility): 2.81 µM; reduction in H3K36me2 (H3K36me2; 6.25 μM): 25%
COc1ccccc1C(=O)Nc1cc2c(cc1N1CCCC1)n(C)c(=O)n2C [PFI-4, N-(1,3-dimethyl-2-oxo-6-(pyrrolidin-1-yl)-2,3-dihydro-1H-benzo[d]imidazol-5-yl)-2-methoxybenzamide]			19.18		> 50	3.20	3.33			19.52	EC50 (S. mansoni schistosomula; 72 h, read-out: SCHISTOSOMULA EC50 Motility): 5.12 µM; EC50 (S. mansoni schistosomula; 72 h, read-out: SCHISTOSOMULA EC50 Phenotype): 5.22 µM; CC50 (HepG2 cells): > 100 µM; EC50 ([2]; 72 h, read-out: ADULT EC50 (95% Confidence Intervals) Females): 31.2 µM; EC50 ([2]; 72 h, read-out: ADULT EC50 (95% Confidence Intervals) Males): 30.1 µM
